Experimental data from patent US11419865B2, “Method for inducing a sustained immune response” (Cytocom Inc., priority 2016, dated 2022).

Tests used:
[1] = tested on: patients with primary progressive multiple sclerosis (PPMS); assay: six month phase II multicenter pilot trial in primary progressive multiple sclerosis, 40 patients; type: in vivo, human
Experimental: […]. The primary end points were safety and tolerability. Secondary outcomes were efficacy on spasticity, pain, fatigue, depression, and quality of life. Clinical and biochemical evaluations were serially performed. Protein concentration of beta-endorphins (BE) and mRNA levels and allelic variants of the mu-opioid receptor gene (OPRM1) were analyzed.

AIDS [2] = assay: 3-month double-blind then open trial in 38 AIDS patients (Kaposi's sarcoma / opportunistic infection); type: in vivo, human
Hepatitis C = Hepatitis C case reports; type: in vivo, human
children with autism = assay: autism, 155 children in 10 studies; type: in vivo, human
Excerpt: 155 children participated in 10 studies; 27 received placebo. […].

[3] = tested on: patients diagnosed with fibromyalgia; assay: open label single center study, twenty-five fibromyalgia patients; type: in vivo, human; conditions: 4.5 mg
[4] = tested on: A549 (lung) and HCT116 (CRC); assay: continuous 48 h exposure, lung and CRC cells
Hepatitis B = Hepatitis B case report; type: in vivo, human; conditions: 1 mg
[5] = tested on: women meeting criteria for fibromyalgia; assay: fibromyalgia study in ten women; type: in vivo, human; conditions: 4.5 mg
Excerpt: […]. […] Baseline erythrocyte sedimentation rate predicted over 80% of the variance in drug response. […]. Which confirms the ability of Immediate release naltrexone to decree pain and inflammation.

[6] = tested on: Autoimmune Hepatitis-Type 1 patient; assay: Autoimmune Hepatitis-Type 1 case report; conditions: 4.5 mg nightly
Fibromyalgia patient = assay: Fibromyalgia and Epstein Barr case report; type: in vivo, human
Excerpt: A person was diagnosed in 1998 Fibromyalgia and Epstein Barr, had to quit work, in pain and very depressed. Various treatments over the years for pain prescribed and other problems with the disease. […]

ovarian cancer cells = ovarian cancer cells treated with different dosing regimens of naltrexone; type: cell-based
Experimental: […]. They also prevent the adhesion of cancer cells to bone marrow stromal cells and thereby inhibit the enhanced secretion of migratory factors, such as interleukin (IL)-6, TNF-α, and vascular endothelial growth factor. In research experiments, ovarian cancer cells were treated with either water as the control or different dosing regimens of naltrexone to replicate high dose versus Immediate release dosing of naltrexone.

MS patients = assay: retrospective chart review of MS patients receiving LDN; type: in vivo, human
Excerpt: This study investigated the safety, tolerability, and benefits (fatigue, reduction) of LDN in patients with MS. It reviewed the number of patients who stopped taking LDN and if there were specific reasons for stopping the LDN. The frequency and variety of side effects that were specific to LDN use are reported. […] 1, 2005 and May 31, 2012. There were 215 MS patients having exposure to LDN during the time of this study. […] In addition to the assessment we review Brain MRIs and Spinal Cord MRIs that were obtained as part of the clinical status of the patient and standard of care.
It reviewed the number of patients who stopped taking IMMEDIATE RELEASE NALTREXONE (LDN) and if there were specific reasons for stopping the IMMEDIATE RELEASE NALTREXONE (LDN). […] 1, 2005 and May 31, 2012. […]. In addition to the assessment we review Brain MRIs and Spinal Cord MRIs that were obtained as part of the clinical status of the patient and standard of care. […].

AIDS [7] = conditions: 3.0 mg daily at bedtime, 12 weeks, cited from earlier work
systemic lupus patients = assay: systemic lupus case reports; type: in vivo, human
Excerpt: […]. […] […].
Psoriasis mostly resolved.

[8] = tested on: patients with hematologic malignancies; assay: randomized controlled trial of quality of life (EORTC QLQ-C30), 89 hematologic cancer patients; type: in vivo, human
Experimental: 89 patients Hematologic Cancer Patients This was a randomized controlled trial assessing quality of life in patients with hematologic malignancies from a single institute in Hamedan. […] Quality of life was measured using the EORTC QLQ-C30 in four points in time (at admission, 1, 3 and 5 months follow-up).
Data were analyzed to compare quality of life in two groups. In total, 89 patients were studied (45 in treatment group and 44 in placebo group). There were no significant differences between two groups either in demographic and clinical characteristics or in baseline quality of life scores.
This study aimed to investigate its effect on hematologic cancer patients. This was a randomized controlled trial assessing quality of life in patients with hematologic malignancies from a single institute. […] Quality of life was measured using the EORTC QLQ-C30 in four points in time (at admission, 1, 3 and 5 months follow-up). Data were analyzed to compare quality of life in two groups. Totally, 89 patients were studied (45 in treatment group and 44 in placebo group). There were no significant differences between two groups either in demographic and clinical characteristics or in baseline quality of life scores. However, at 1 month, 3 and 5-month follow-up assessments significant differences were observed. […].

Structure (SMILES): O=C1CC[C@@]2(O)[C@H]3Cc4ccc(O)c5c4[C@@]2(CCN3CC2CC2)[C@H]1O5 [Immediate release naltrexone, naltrexone]
- Neurological disability ([1]; 40 patients): progressed in only one patient
- dropouts and major adverse events ([1]; 40 patients): Five dropouts and two major adverse events occurred
- spasticity ([1]; end of the six month trial): significant reduction of spasticity
- beta-endorphins (BE) concentration ([1]; human, in vivo): increased during the trial
- safety and tolerability ([1]; human, in vivo): safe and well tolerated
- elevated levels of serum alpha interferon (IFN-α) vs placebo (AIDS [2]; 1.75 mg nightly at bedtime, 3-month double-blind period, p<0.01): significant drop
- survival of patients who did not show a decline in IFN-α (AIDS [2]; 2 of the 15): 13%
- mean IFN-α level after treatment (AIDS [2]; 23 patients with decline, from mean 144.9 IU. over a 12-month period): 11.0 IU.
- survival of patients who showed a decline in IFN-α (AIDS [2]; Nineteen of the 23, p<0.01): 83%
- side effects (AIDS [2]; during the conduct of the trial): No side effects were noted
- Viral load, person, Hepatitis C & stage 4 cirrhosis (Hepatitis C; 4.5 mg, by August of 2011): 8.3 million
- HCV viral load, person (Hepatitis C; May 2010): 11.400
- ultrasound and liver enzymes, person, Hepatitis C (Hepatitis C; all other medication stopped): No fatty liver, Liver enzymes dropped to normal
- HCV viral load, person (Hepatitis C; started February of 2009, May 2009, from over a million in January 2009): 49,000
- children with statistically significant improvement in symptoms of irritability and hyperactivity (children with autism; 98 of the 128 that received naltrexone): 77%
- side effects and tolerability (children with autism; in vivo): Side effects were mild and the drug was generally well tolerated
- average improvement in FIQR in eleven patients (50%) [3]: 41%
- effect on A549 and HCT116 [4]: no effect
- additional benefits, child, Hepatitis B (Hepatitis B): resolutions of eczema
- serology, child, Hepatitis B (Hepatitis B; within 7 months): Sero-conversion to negative antigens and positive antibodies
- ALT/AST, child, Hepatitis B (Hepatitis B; within one month): decreased to normal
- viral load, child, Hepatitis B (Hepatitis B; within one month, from 59.2 million): 53,000
- Side effects (including insomnia and vivid dreams) [5]: rare, and described as minor and transient
- mechanical and heat pain thresholds ([5]; laboratory visits): improved
- side effects, person, Autoimmune Hepatitis-Type 1 [6]: vivid dreams and mild indigestion in the first two weeks
- decrease of pain level, person, Fibromyalgia and Epstein Barr (Fibromyalgia patient; 0.5 mg in 2004 increased to 3 mg): 90%
- antidepressant use, person, Fibromyalgia (Fibromyalgia patient; 0.5 mg increased to 3 mg): no longer need to take anti-depressants
- growth of cancer cells (ovarian cancer cells; Immediate release low or short-term dosing, control water): growth of cancer cells was slowed
- growth of cancer cells (ovarian cancer cells; high dose of naltrexone): cancer cells were stimulated and grew faster
- quality of life over a long period of time (MS patients; 215 MS patients exposed): improvement in quality of life
- Brain MRI scans showing improvement (MS patients; of 215 patients): 14 MRI scans
- Brain MRI scans slightly worse (MS patients; of 215 patients, new but inactive lesion(s)): 28 MRI scans
- lymphocyte mitogen responses (AIDS [7]): declined on placebo and not on Immediate release naltrexone
- pathologically elevated levels of acid-labile alpha interferon (AIDS [7]): declined significantly
- incidence of opportunistic infections (patients) (AIDS [7]; placebo 5 out of 16 (31%)): 0 of the 22
- MRSA recurrence, person, systemic lupus (systemic lupus patients; 1.5 mg): No recurrence of MRSA in 8 years
- tolerability, person, systemic lupus (systemic lupus patients; 1.5 mg starting dose): unable to take it due to insomnia and pruritis
- mobility, person, Systemic Lupus (systemic lupus patients; 3 mg from March 2013, within three weeks): improved mobility
- skin, person, Systemic Lupus (systemic lupus patients; 3 mg increasing to 4.5 mg, within 4 months): skin cleared almost 100%
- hospital stays, person, Systemic Lupus (systemic lupus patients; 4.5 mg): no hospital stays since March of 2013
- disease status, person, systemic lupus (systemic lupus patients; liquid form, 0.1 mg increased weekly to 1.5 mg, with supplements, diet): Lupus, in remission
- social functioning (EORTC QLQ-C30) vs placebo ([8]; 3 mg capsules daily plus routine treatment, one month follow-up, p<0.05): better condition in the treatment group
- blood laboratory tests ([8]; 3 mg daily): no changes in the blood laboratory tests
- social functioning, role functioning, nausea and vomiting and appetite loss vs placebo ([8]; 3 mg daily, 3-month follow-up, all p-values<0.05): better in the treatment group
- physical, social, role functioning, global quality of life, nausea and vomiting and appetite loss vs placebo ([8]; 3 mg daily, 5-month follow-up): significantly better
